The record followed here is patent US11958868B2, “Methods of using metal complexes to promote wound healing” (University of Macau, priority 2022, dated 2024).

Assay [1] deals with HIF-1α activation of the HRE-driven reporter. The assay is described as follows: Dual luciferase reporter assay (HRE-driven luciferase activity). Type of assay: cell-based, Human. The settings on record: HEK293 cells; for HRE-driven luciferase activity, second round of screening: complexes 1a-1n, ranking and comparison in words; for HRE-driven luciferase activity (HIF-1α transcriptional activity), first round of screening: complexes 10 μM, complexes 1-14, ranking in words. As for the experimental part: A library of cyclometalated Ir(III)/Rh(III) metal complexes 1-14 (as racemates) with diverse structures were selected for initial screening, in order to identify favorable substructures for the design of the next round of complexes (FIG. 1a). In cells, HIF-1α moves into the nucleus and binds to the hypoxia-response element (HRE) in the promoters of transactivated genes. In this study, the dual luciferase reporter assay (DLR) was performed to monitor the variations of HRE-driven luciferase activity induced by the complexes (FIG. 1f). Human embryonic kidney HEK293 cells were treated with complexes (10 μM) for 8 h, and the HRE-driven luciferase activity of the cell lysates was determined. Complexes that inhibit the interaction between VHL and HIF-1α would be expected to increase the level of HRE-driven luciferase activity in the cell lysates.
HEK293 cells were seeded in six well plates 24 h before transfection. HRE-luciferase plasmid (4 μg) and pRL-TK plasmid (4 μg) and TurboFect reagent (6 μL) were mixed together in serum-free DMEM medium and the resulting solution was incubated for 20 min at room temperature. The mixture was the added dropwise to the HEK293 cells in the wells. The cells were incubated for 32 h at 37° C. in a CO2 incubator before use.
The inhibition of HIF-1α activity was assayed by a reporter assay using a dual luciferase reporter assay system (Promega, Madison, WI, USA). Transiently transfected cells were treated with complexes or P1 for 8 h before measurement. Luciferase activity was integrated over a 10 second period and measured using a spectrophotometer (Spectra-max M5, Molecular Devices, USA). The results were standardization with the activity of Renilla luciferase. All data are expressed as means±SD.
For orientation: A reporter such as luciferase makes a cellular process visible.

Assay [2] addresses T1, human recombinant VHL:ElonginB:ElonginC (VBC) complex (Homo sapiens, UniProt P40337).
T1 construct: made in house
Nature of the assay: Fluorescence-based protein thermal shift assay (FTS) of VBC. Type of assay: binding. The settings on record: 100 μM. Here is the method: HEK293 cells were treated with vehicle DMSO (1% for 2 h), 1a (0.3, 1, 3, 6 and 9 μM for 2 h), VH298 (100 μM for 2 h), MG132 (20 μM for 3 h), or FG-4592 (100 μM for 2 h) before lysis. Cell lysates were collected and incubated with VHL antibody overnight at 4° C. The proteins were immunoprecipitated using agarose beads. The levels of hydroxy-HIF-1α co-precipitated with VHL were detected using a hydroxy-HIF-1α antibody, and then visualized using ECL Western Blotting Detection Reagent (GE Healthcare). (B) Cellular thermal shift assays to monitor cellular target engagement of VHL and HIF-1α. HEK293 cell lysates were treated with 1a (3 μM) at room temperature for 30 min and then heated at different temperature ranging from 48° C. to 68° C. for 5 min. The protein samples were collected and detected by Western blotting using either VHL or PHD2 antibodies. (C) Fluorescence-based protein thermal shift assay of VBC in the presence or absence of VH298 (100 μM) and complex 1a (100 μM). […] Data are expressed as means±SD (n=3 independent experiments for figures a and b, samples for figures c and e), P values were calculated using a two-sided t-test. *P<0.05, **P<0.01 vs. DMSO group.
After incubating HEK293 cell lysates with complex 1a followed by heating to set temperatures, VHL and PHD2 levels in the soluble fraction were quantitated by Western blotting.

In assay [3] the test system is HIF-1α levels in A498 (VHL-null) cells. The assay is described as follows: HIF-1α accumulation in VHL-null A498 cells. Type of assay: cell-based. As to conditions: 1a 3 μM, VH298 100 μM, 2 h. As for the experimental part:
FIG. 3 depicts the effect of complex 1a on HIF-1α target gene products in cellulo. (A) Effect of complex 1a on specific proteins (GLUT1, VEGF, and EPO) mediated by HIF-1α in HEK293 cells. HEK293 cells were treated with 1a for 2 h. Cell lysis were collected and analyzed by the Western blotting. (B) Complex 1a has no effect on HIF-1α accumulation in a VHL null cancer cell line. A498 (VHL-null), or HEK293 cells were treated with 1% DMSO, 1a (3 μM), VH298 (100 μM), and FG-4592 (100 μM) for 2 h before lysis. (C) Effect of complex 1a on EPO, GLUT1, and VEGF levels in HEK293 cells with or without HIF-1α knockdown. Left: The expression levels of EPO, GLUT1, and VEGF in HEK293 cells with or without knockdown HIF-1α in the presence or absence of 1a. Right: Densitometry analysis of EPO, GLUT1, and VEGF levels on the Western blot. HIF-1α siRNA [sense, 5′-[…]-3′ (SEQ ID NO:1), antisense, 5′-[…]-3′ (SEQ ID NO:2)]. Negative control (NC) siRNA [sense, 5′-[…]-3′ (SEQ ID NO:3), antisense, 5′-[…]-3′ (SEQ ID NO:4)]. Data are expressed as means±SD (n=3 independent experiments), P values were calculated using a two-sided t-test. #P<0.05, P<0.01 HIF-1α siRNA vs. NC siRNA, *P<0.05, **P<0.01 1a vs. vehicle/DMSO group, respectively. […]

A further assay concerns the target VHL (Homo sapiens, UniProt P40337). The assay is described as follows: Binding affinity to VHL compared with VH298. The settings on record: VH298 vs complex 1a.

T1 sequence (P40337 whole entry): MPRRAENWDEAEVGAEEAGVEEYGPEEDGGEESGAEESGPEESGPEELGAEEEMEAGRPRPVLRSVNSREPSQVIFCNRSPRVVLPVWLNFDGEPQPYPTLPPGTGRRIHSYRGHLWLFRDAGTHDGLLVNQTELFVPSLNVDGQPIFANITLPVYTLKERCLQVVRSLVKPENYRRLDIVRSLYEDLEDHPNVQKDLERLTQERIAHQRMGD
T1 sequence (Q15370 whole entry partner): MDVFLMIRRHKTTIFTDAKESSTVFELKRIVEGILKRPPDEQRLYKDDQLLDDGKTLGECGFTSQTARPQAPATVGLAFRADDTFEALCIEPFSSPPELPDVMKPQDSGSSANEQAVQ
T1 sequence (Q15369 whole entry partner): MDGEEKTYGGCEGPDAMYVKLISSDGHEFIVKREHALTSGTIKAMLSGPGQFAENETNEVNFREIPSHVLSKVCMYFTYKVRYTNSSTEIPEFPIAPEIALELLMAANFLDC
Sequence of VHL (P40337 whole entry): as the sequence (P40337 whole entry) above
Sequence of VHL (Q15370 whole entry partner): as the sequence (Q15370 whole entry partner) above
Sequence of VHL (Q15369 whole entry partner): as the sequence (Q15369 whole entry partner) above

Turning to `COc1cc[n+]2c3c1ccc1c(OC)cc[n+](c13)[Rh-3]213([c]2ccccc2-c2cccc[n+]21)[c]1ccccc1-c1cccc[n+]13.F[P-](F)(F)(F)(F)F` [1b], in assay [1] (8 h), the “HRE-driven luciferase activity, second round of screening” value is “substantially more active than the Rh(III) congener 1b”.
Same read-out and setting: the entry for `COc1cc[n+]2c3c1ccc1c(OC)cc[n+](c13)[Ir-3]213([c]2cc(Br)ccc2-c2cccc[n+]21)[c]1cc(Br)ccc1-c1cccc[n+]13.F[P-](F)(F)(F)(F)F` [1c] is “drastically reduced activity”; for `COc1cc[n+]2c3c1ccc1c(OC)cc[n+](c13)[Ir-3]213([c]2ccccc2-c2c(C)ccc[n+]21)[c]1ccccc1-c1c(C)ccc[n+]13.F[P-](F)(F)(F)(F)F` [1e] it is “substantially weakens the activity of the complex”; for `COc1cc[n+]2c3c1ccc1c(OC)cc[n+](c13)[Ir-3]213([c]2cc(C)ccc2-c2cccc[n+]21)[c]1cc(C)ccc1-c1cccc[n+]13.F[P-](F)(F)(F)(F)F` [1g] it is “second-most potent compound”.
On the same count and under the same terms, as for `COc1cc[n+]2c(c1)-c1cc(OC)cc[n+]1[Ir-3]213([c]2cc(Br)ccc2-c2cccc[n+]21)[c]1cc(Br)ccc1-c1cccc[n+]13.F[P-](F)(F)(F)(F)F` [1h], the entry is “led to a decrease in activity”; as for `Brc1ccc2[c](c1)[Rh-3]13([c]4cc(Br)ccc4-c4cccc[n+]41)([n+]1ccccc1-2)[n+]1cccc2ccc4ccc[n+]3c4c21.F[P-](F)(F)(F)(F)F` [1i], “drastically reduced activity”; as for `Brc1ccc2[c](c1)[Ir-3]13([c]4cc(Br)ccc4-c4cccc[n+]41)([n+]1ccccc1-2)[n+]1cccc2ccc4ccc[n+]3c4c21.F[P-](F)(F)(F)(F)F` [1j], “drastically reduced activity”.
On to `Brc1ccc2[c](c1)[Rh-3]13([c]4cc(Br)ccc4-c4cccc[n+]41)([n+]1ccccc1-2)[n+]1ccc(Br)c2ccc4c(Br)cc[n+]3c4c21.F[P-](F)(F)(F)(F)F` [1k], for which the “HRE-driven luciferase activity, second round of screening” value in assay [1] (8 h) is recorded as “drastically reduced activity”.
Still for that read-out and setting: the entry for `Brc1ccc2[c](c1)[Ir-3]13([c]4cc(Br)ccc4-c4cccc[n+]41)([n+]1ccccc1-2)[n+]1ccc(Br)c2ccc4c(Br)cc[n+]3c4c21.F[P-](F)(F)(F)(F)F` [1l] is “drastically reduced activity”.
On the same count and under the same terms, as for `Brc1ccc2[c](c1)[Rh-3]13([c]4cc(Br)ccc4-c4cccc[n+]41)([n+]1ccccc1-2)[n+]1ccc(-c2ccccc2)c2ccc4c(-c5ccccc5)cc[n+]3c4c21.F[P-](F)(F)(F)(F)F` [1m], the entry is “drastically reduced activity”; as for `Brc1ccc2[c](c1)[Ir-3]13([c]4cc(Br)ccc4-c4cccc[n+]41)([n+]1ccccc1-2)[n+]1ccc(-c2ccccc2)c2ccc4c(-c5ccccc5)cc[n+]3c4c21.F[P-](F)(F)(F)(F)F` [1n], “drastically reduced activity”.
As for `Cc1ncsc1-c1ccc(CNC(=O)[C@@H]2C[C@@H](O)CN2C(=O)[C@@H](NC(=O)C2(C#N)CC2)C(C)(C)C)cc1` [VH298, reference compound], the “Shift of the melting curve of purified VBC (FTS)” value in assay [2] was “ca. 5.0 °C”. Also, in assay [3], the “HIF-1α levels in A498 cells” value is given as “no increase in HIF-1α levels”. For the same compound, at VHL, the “Binding affinity to VHL, stronger than complex 1a” value is listed as “ca. 100 fold”.
Take `Brc1ccc(-c2ccccn2)cc1` [brpy, 2-(4-bromophenyl)pyridine]: the “Effect of isolated ligands on HRE-driven luciferase activity” value in assay [1] was “neither brpy nor dmeophen had any significant effect”.
For `COc1cc[n+]2c3c1ccc1c(OC)cc[n+](c13)[Rh-3]213([c]2cc(Br)ccc2-c2cccc[n+]21)[c]1cc(Br)ccc1-c1cccc[n+]13.F[P-](F)(F)(F)(F)F` [compound 1], in assay [1] (8 h), the “HRE-driven luciferase activity compared to positive control P1 (and parent complex 1)” value was “slightly higher activity compared to the positive control compound, P1” and the “HRE-driven luciferase activity (HIF-1α transcriptional activity), first round of screening” value was “highest activation of HIF-1α transcriptional activity”.
Turning to `CCc1ccc2[c](c1)[Rh-3]13([c]4cc(CC)ccc4-c4cccc[n+]41)([n+]1ccccc1-2)[n+]1ccc(-c2ccccc2)c2ccc4c(-c5ccccc5)cc[n+]3c4c21.F[P-](F)(F)(F)(F)F` [compound 5], the “HRE-driven luciferase activity (HIF-1α transcriptional activity), first round of screening” value in assay [1] (8 h) is reported as “next most potent candidate”.
In the case of `CCc1ccc2[c](c1)[Rh-3]13([c]4cc(CC)ccc4-c4ccc5ccccc5[n+]41)([n+]1ccc(OC)cc1-c1cc(OC)cc[n+]13)[n+]1c-2ccc2ccccc21.F[P-](F)(F)(F)(F)F` [compound 6], the “HRE-driven luciferase activity (HIF-1α transcriptional activity), first round of screening” value in assay [1] (8 h) is on record as “low activity”.
Turning to `COC(=O)c1cc[n+]2c(c1)-c1cc(C(=O)OC)cc[n+]1[Rh-3]213([c]2ccccc2-c2ccc4ccccc4[n+]21)[c]1ccccc1-c1ccc2ccccc2[n+]13.F[P-](F)(F)(F)(F)F` [compound 7], the “HRE-driven luciferase activity (HIF-1α transcriptional activity), first round of screening” value in assay [1] (8 h) is listed as “low activity”.
Take `F[P-](F)(F)(F)(F)F.O=[N+]([O-])c1cc2ccc[n+]3c2c2c1ccc[n+]2[Ir-3]312([c]3cc(F)cc(F)c3-c3cccc[n+]31)[c]1cc(F)cc(F)c1-c1cccc[n+]12` [compound 9]: in assay [1] (8 h), the “HRE-driven luciferase activity (HIF-1α transcriptional activity), first round of screening” value is given as “low activity”.
As to `COc1ccnc2c1ccc1c(OC)ccnc12` [dmeophen, 4,7-dimethoxy-1,10-phenanthroline], the “Effect of isolated ligands on HRE-driven luciferase activity” value in assay [1] was “neither brpy nor dmeophen had any significant effect”.
